Assays:
Type in all cases: cell-based, human
MCF-10A cells = assay: Cell viability assay (MTT) on normal mammary epithelial cells; settings: MCF-10A normal cells, 50 µM, 4 days incubation
Protocol: This test investigates the effects of the new compounds 3–16 on normal cell lines to determine their safety. The normal human mammary gland epithelial (MCF-10 A) cell line was used to test the viability of the tested compounds. After 4 days of incubation on MCF-10 A cells within 50 µM of each investigated compound, cell viability was determined using the MTT assay ([Gomaa et al., 2020]; [Marzouk et al., 2020]).
The normal human mammary gland epithelial (MCF-10A) cell line was used to test the viability of the tested compounds. After 4 days of incubation on MCF-10A cells within 50 µM of each investigated compound, cell viability was determined using the MTT assay ([Gomaa et al., 2020]; [Marzouk et al., 2020]). Refer to Supplementary Appendix SA1 (supp. File) for more details.
4.2. Biological evaluation
4.2.1 Cell Viability assay (MTT assay)
MTT assay was performed to investigate the effect of the synthesized compounds on mammary epithelial cells (MCF-10A). The cells were propagated in medium consisting of Ham's F-12 medium/ Dulbecco's modified Eagle's medium (DMEM) (1:1) supplemented with 10% foetal calf serum, 2 mM glutamine, insulin (10 μg/mL), hydrocortisone (500 ng/mL) and epidermal growth factor (20 ng/mL). Trypsin ethylenediamine tetra acetic acid (EDTA) was used to passage the cells after every 2-3 days. 96-well flat-bottomed cell culture plates were used to seed the cells at a density of 10^4 cells mL-1. The medium was aspirated from all the wells of culture plates after 24 h followed by the addition of synthesized compounds (in 200 μL medium to yield a final concentration of 0.1% (v/v) dimethyl sulfoxide) into individual wells of the plates. Four wells were designated to a single compound. The plates were allowed to incubate at 37°C for 96 h. Afterwards, the medium was aspirated and 3-[4,5-dimethylthiazol-2-yl]-2,5-diphenyltetrazolium bromide (MTT) (0.4 mg/mL) in medium was added to each well and subsequently incubated for 3 h. The medium was aspirated and 150 μL dimethyl sulfoxide (DMSO) was added to each well. The plates were vortexed followed by the measurement of absorbance at 540 nm on a microplate reader. The results were presented as inhibition (%) of proliferation in contrast to controls comprising 0.1%

Bcl-2 = Bcl-2 inhibition assay; settings: lung (A-549) cancer cells; for Bcl-2 Conc: compound at IC50
Protocol: 4.2.8. Bcl-2 inhibition assay
Mix all reagents thoroughly without foaming before use. Wash the microwells twice with approximately 300 μL Wash Buffer per well with thorough aspiration of microwell contents between washes. Take caution not to scratch the surface of the microwells. After the last wash, empty the wells and tap microwell strips on absorbent pad or paper towel to remove excess Wash Buffer. Use the microwell strips immediately after washing or place upside down on a wet absorbent paper for not longer than 15 minutes. […] Add 100 μL of Sample […]
Diluent in duplicate to all standard wells and to the blank wells. Prepare standard (1:2 dilution) in duplicate ranging from 32 ng/mL to 0.5 ng/mL. Add 100 μL of Sample Diluent, in duplicate, to the blank wells. Add 80 μL of Sample Diluent, in duplicate, to the sample wells. Add 20 μL of each Sample, in duplicate, to the designated wells. Add 50 μL of diluted biotin-conjugate to all wells, including the blank wells. Cover with a plate cover and incubate at room temperature, on a microplate shaker at 100 rpm if available, for 2 hours. Remove plate cover and empty the wells.
Wash microwell strips 3 times as described in step 2. Add 100 μL of diluted Streptavidin-HRP to all wells, including the blank wells. Cover with a plate cover and incubate at room temperature, on a microplate shaker at 100 rpm if available, for 1 hour. Remove plate cover and empty the wells.
Wash microwell strips 3 times as described in step 2. Proceed to the next step. Pipette 100 μl of mixed TMB Substrate Solution to all wells, including the blanks. Incubate the microwell strips at room temperature (18° to 25°C) for about 15 minutes, if available on a rotator set at 100 rpm.
Avoid direct exposure to intense light. The point, at which the substrate reaction is stopped, is often determined by the ELISA reader. Many ELISA readers record absorbance only up to 2.0
O.D. Therefore, the color development within individual microwells must be watched by the person running the assay and the substrate reaction stopped before positive wells are no longer properly detectable. Stop the enzyme reaction by quickly pipetting 100 μL of Stop Solution into each well, including the blank wells. It is important that the Stop Solution is spread quickly and uniformly throughout the microwells to completely inactivate the enzyme. Results must be read immediately after the Stop Solution is added or within one hour i f the microwell strips are stored at 2 - 8°C in the dark. Read absorbance of each microwell on a spectrophotometer using 450 nm as the primary wavelength.

Caspase-8 = Caspase-8 activation assay; settings: A-594 cells; for Caspase-8 Fold change: at IC50 concentration, vs untreated control; for Caspase-8 Conc: compound at its IC50 concentration
Protocol: When cells get specific signal instructions, they undergo apoptosis, which results in several significant changes. Caspases, considered the main workers in apoptosis, are activated early in the process, cleaving critical cellular components such as nuclear proteins like DNA repair enzymes or structural proteins found in the cytoskeleton that are required for optimal cellular function.
4.2.6. Caspase-8 activation assay […]
caspase8, and lysed with Cell Extraction Buffer. This lysate was diluted in Standard Diluent Buffer over the range of the assay and measured for human active caspase-8 content. (Cells are Plated in a density of 1.2 – 1.8 × 10,000 cells/well in a volume of 100µl complete growth medium + 100 ul of the tested compound per well in a 96-well plate for 24 hours before the enzyme assay for Tubulin.). The absorbance of each microwell was read on a spectro-photometer at 450 nm. A standard curve is prepared from 7human Caspase-8 standard dilutions and human Caspase-8 concentration determined. […]

Row | Structure (SMILES) | Cell viability % (MCF-10A cells) | Bcl-2 Conc (Bcl-2) [ng/mL] | Caspase-8 Fold change (Caspase-8) | Caspase-8 Conc (Caspase-8) [ng/mL] | Bcl-2 Fold reduction (Bcl-2; at IC50, vs untreated control)
1 | CCc1c2cc(Cl)ccc2n2cc(Cc3ccccc3)n(C)c(=O)c12 [Compound 12, 3-Benzyl-8-chloro-10-ethyl-2-methylpyrazino[1,2-a]indol-1(2H)-one] | no effect | 0.65 | 29 | 2.60 ± 0.20 | –
2 | CCc1c2cc(Cl)ccc2n2cc(-c3ccccc3)[nH]c(=O)c12 [Compound 16, 8-Chloro-10-ethyl-3-phenylpyrazino [1,2-a]indol-1(2H)-one] | no effect | 0.85 | 25 | 2.25 ± 0.18 | ~6

— paper PMC11414412, “Design and synthesis new indole-based aromatase/iNOS inhibitors with apoptotic antiproliferative activity” (Frontiers in Chemistry, 2024)
